One assay has as its target T1, human Kv1.3 (Homo sapiens, UniProt P22001).
T1 construct: expressed in transfected cells; host or cells: stably transfected cells grown in medium for CHO cells
Nature of the assay: Kv1.3 Autopatch electrophysiology (whole cell patch-clamp, inhibition of charge movement). It is filed as cell-based. To be noted: compound at 1 μM; cells stably transfected with human Kv1.3; room temperature; total charge during step to +30 mV relative to control; read-out: hKv1.3 % inh. Put shortly: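 Whole-cell AutoPatch recordings were made at room temperature from cells held at −80 mV, with 500 ms steps to +30 mV every 15 s. The bath contained 10 mM KCl, pH 7.4, and the pipette K-gluconate/EGTA, pH 7.2.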

The target in another assay is hKv1.5 (Homo sapiens, UniProt P22460). The assay can be described thus: Kv1.5 Autopatch electrophysiology (whole cell patch-clamp). It is filed as cell-based. The following applies: compound at 1 μM; room temperature (22-24° C.); total charge during step to 0 mV; read-out: hKv1.5 % inh. As to the method: Kv1.5 Autopatch Electrophysiology Method
The external bathing solution contained (in mM): 150 NaCl, 10 KCl, […], 3 MgCl2, 1 CaCl2, 10 HEPES, pH 7.4. Patch pipettes were filled with an electrode solution of composition (in mM): 160 KCl, 0.5 MgCl2, 10 HEPES, 1 EGTA, pH 7.4 with KOH.
Compounds were dissolved in DMSO (100%) and made up in the external bather at a concentration of 1 μM. All experiments were conducted at room temperature (22-24° C.).
A cell suspension (10 ml), with a density of 100,000 cells/ml, was aliquoted into a 15 ml centrifuge tube and transferred to an incubator (37° C., 5% CO2) for approximately one hour before use. Following 60 min incubation, a tube was taken and centrifuged at 1000 rpm for 4 mins at room temperature. 9.5 ml supernatant was thence discarded, leaving a cell pellet at the bottom of the tube. The pellet was then resuspended using 100 μl of cold (4° C.), filtered (0.22 μm), 0.2% BSA/bather solution (0.02 g BSA/10 ml bather). The bottom of the tube was manually agitated gently until the solution became cloudy with cells. The 100 μl cell resuspension solution was then stored on the bench at 4° C. (using a Peltier-based temperature control device) until used.
A length of capillary glass (1B150F-4, WPI) was dipped into the cell suspension solution, such that ˜3 cm column of fluid was taken up by capillary action. A Ag/AgCl wire was dropped into the non-dipped end of the capillary also. The outside of the solution-filled end of the capillary was then dried and the capillary was loaded into the AutoPatch™.
Borosilicate glass patch pipettes (from 1.5 mm OD, thin-walled filamented, GC150-TF capillary glass, Harvard) were pulled using a DMZ pipette puller (Zeitz Instruments), and were back-filled using the internal pipette solution, being careful that no bubbles remain at the tip or in the body of the pipette. Patch pipettes typically had resistances of 2.3-3.5 MΩ. Once filled, the pipette tip and a proportion of the shaft (˜15 mm) were dipped into Sigmacote (Sigma). The recording pipette was then loaded into the AutoPatch™ Automated patch-clamping was initiated by the operator, but thereafter AutoPatch.exe continued the experiment providing that pre-set conditions and criteria were satisfied.
Whole cell patch-clamp recordings were made using the AutoPatch™ rig, which incorporated an EPC9 amplifier (HEKA, Germany) under control of Pulse software (v8.54, HEKA, Germany), a motion controller with 2 translators (Newport, UK), valve controller (VF1) and a c-level suction device all at room temperature (22-24° C.). This equipment was completely under the control of AutoPatch.exe and operator intervention was only made when there was a requirement to refill the drug reservoirs or to prevent the loss of a cell due to a technical error. Cells with an Rseries greater than 18 MΩ were discounted from the experiment.
Qualification stages prior to perfusion and drug application ensured that the observed current met the criteria for the experiment. Only those cells with an IK>500 pA were used for experiments. Cells were continuously perfused with external solution at a flow rate of 1.8-2 ml/minute. […] Online analysis of the hKv1.5 current during the application of compounds was performed by the AutoPatch™ software. Voltage-step protocols and analysis of data was performed as described for conventional electrophysiology.
Electrophysiology voltage-step protocols and analysis of data was performed as follows. Data was sampled at 5 kHz, and filtered with a −3 dB bandwidth of 2.5 kHz. Cells were held at a voltage of −80 mV. Currents were evoked to a voltage step for 1000 ms in duration at 0 mV every 5 s. Currents were analysed using Pulsefit software (v8.54, HEKA, Germany), with the total charge measured during the whole of the voltage step. All other plots were produced using Igor Pro (WaveMetrics).
On the technique in general: In patch-clamp work, channel activity is measured electrically.

T1 sequence (P22001 whole entry): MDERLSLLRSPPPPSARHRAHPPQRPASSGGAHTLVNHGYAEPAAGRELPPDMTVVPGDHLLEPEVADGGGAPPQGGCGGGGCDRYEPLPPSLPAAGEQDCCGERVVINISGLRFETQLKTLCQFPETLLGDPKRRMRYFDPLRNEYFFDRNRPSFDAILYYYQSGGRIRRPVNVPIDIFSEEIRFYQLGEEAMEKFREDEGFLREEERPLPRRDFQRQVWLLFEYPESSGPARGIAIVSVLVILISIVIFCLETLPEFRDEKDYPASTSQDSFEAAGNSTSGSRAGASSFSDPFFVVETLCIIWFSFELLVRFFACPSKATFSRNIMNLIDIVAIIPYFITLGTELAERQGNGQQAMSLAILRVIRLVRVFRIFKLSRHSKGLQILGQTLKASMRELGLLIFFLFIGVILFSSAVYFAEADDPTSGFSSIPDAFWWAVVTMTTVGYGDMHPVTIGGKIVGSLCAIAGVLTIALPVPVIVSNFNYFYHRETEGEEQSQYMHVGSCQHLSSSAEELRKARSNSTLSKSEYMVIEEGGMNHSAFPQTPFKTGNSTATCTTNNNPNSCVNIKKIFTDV
Chain of hKv1.5 (P22460 whole entry): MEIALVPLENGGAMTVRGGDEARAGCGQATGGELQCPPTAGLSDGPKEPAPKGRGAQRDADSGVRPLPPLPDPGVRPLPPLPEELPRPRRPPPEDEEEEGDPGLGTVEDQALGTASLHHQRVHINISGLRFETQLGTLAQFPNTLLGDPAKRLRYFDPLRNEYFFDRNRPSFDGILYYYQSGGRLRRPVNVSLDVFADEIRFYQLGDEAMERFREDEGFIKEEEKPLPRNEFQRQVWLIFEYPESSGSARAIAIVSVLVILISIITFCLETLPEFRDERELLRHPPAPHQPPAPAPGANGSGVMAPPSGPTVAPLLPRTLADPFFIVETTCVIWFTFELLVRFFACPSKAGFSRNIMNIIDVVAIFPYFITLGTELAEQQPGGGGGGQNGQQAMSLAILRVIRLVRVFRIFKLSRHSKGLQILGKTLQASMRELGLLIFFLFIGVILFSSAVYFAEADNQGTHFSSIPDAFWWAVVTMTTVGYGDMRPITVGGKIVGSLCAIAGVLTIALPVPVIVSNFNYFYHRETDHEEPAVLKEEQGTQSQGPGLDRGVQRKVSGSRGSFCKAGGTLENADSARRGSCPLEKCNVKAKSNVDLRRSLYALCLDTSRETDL

In the case of `O=C(c1ccc(N(Cc2ccccc2)S(=O)(=O)c2ccccc2)c(F)c1)N1CCN(c2ccccc2)CC1` [Example 53, N-Benzyl-N-[2-fluoro-4-(4-phenyl-piperazine-1-carbonyl)-phenyl]-benzenesulfonamide], the inhibition at 1 µM at human Kv1.3 is 42%; at hKv1.5, 93.8%.

Turning to `COc1cc(N(Cc2ccccc2)S(=O)(=O)c2ccccc2)ccc1C(=O)N1CCN(c2ccccc2)CC1` [Example 54, N-Benzyl-N-[3-methoxy-4-(4-phenyl-piperazine-1-carbonyl)-phenyl]-benzenesulfonamide], the inhibition at 1 µM at human Kv1.3 was found to be 92%; at hKv1.5, 89.6%.

Regarding `O=C(c1ccc(N(Cc2ccccc2)S(=O)(=O)c2ccccc2)cc1)N1CCc2ccccc2C1` [Example 55, N-Benzyl-N-[4-(3,4-dihydro-1H-isoquinoline-2-carbonyl)-phenyl]-benzenesulfonamide], the inhibition at 1 µM on human Kv1.3 stood at 81%; on hKv1.5, 50.1%.

Consider `COc1ccc(C2CCCN(C(=O)c3ccc(N(Cc4ccc(Cl)cc4)S(=O)(=O)c4ccccc4)cc3)C2)cc1` (stereo not shown) [Example 57, N-(4-Chloro-benzyl)-N-{4-[3-(4-methoxy-phenyl)-piperidine-1-carbonyl]-phenyl}-benzenesulfonamide], for which the inhibition at 1 µM was determined as 47% on human Kv1.3 and 45.2% at hKv1.5.

`O=C(c1ccc(N(Cc2ccccc2)S(=O)(=O)c2ccccc2)cc1)N1CCC(O)(Cc2ccccc2)CC1` [Example 59, N-Benzyl-N-[4-(4-benzyl-4-hydroxy-piperidine-1-carbonyl)-phenyl]-benzenesulfonamide]: the inhibition at 1 µM at human Kv1.3 stood at 87%; at hKv1.5, 40.1%.

For the molecule `Cn1cnc(S(=O)(=O)N(Cc2ccc(Cl)cc2)c2ccc(C(=O)N3CCCC(c4ccccc4)C3)cc2)c1` (stereo not shown) [Example 61, 1-Methyl-1H-imidazole-4-sulfonic acid (4-chloro-benzyl)-[4-(3-phenyl-piperidine-1-carbonyl)-phenyl]-amide], the inhibition at 1 µM at human Kv1.3 turned out to be 89%; at hKv1.5, 67.5%.

As to `Cn1cnc(S(=O)(=O)N(Cc2ccc(Cl)cc2)c2ccc(C(=O)N3CCCC(Oc4ccccc4)C3)cc2)c1` (stereo not shown) [Example 62, 1-Methyl-1H-imidazole-4-sulfonic acid (4-chloro-benzyl)-[4-(3-phenoxy-piperidine-1-carbonyl)-phenyl]-amide], the values for the inhibition at 1 µM at human Kv1.3 and on hKv1.5 were 64% and 52.4%, respectively.

As to `Cn1cnc(S(=O)(=O)N(Cc2ccccc2)c2ccc(C(=O)N3CCOC(c4ccccc4)C3)cc2)c1` (stereo not shown) [Example 63, 1-Methyl-1H-imidazole-4-sulfonic acid benzyl-[4-(2-phenyl-morpholine-4-carbonyl)-phenyl]-amide], the inhibition at 1 µM came to 93% on human Kv1.3 and 74.4% on hKv1.5.

Take `Cn1cnc(S(=O)(=O)N(Cc2ccc(F)cc2)c2ccc(C(=O)N3CCOC(c4ccccc4)C3)cc2)c1` (stereo not shown) [Example 66, 1-Methyl-1H-imidazole-4-sulfonic acid (4-fluoro-benzyl)-[4-(2-phenyl-morpholine-4-carbonyl)-phenyl]-amide]: the inhibition at 1 µM at human Kv1.3 is 55%; at hKv1.5, 69%.

In the case of `Cn1cnc(S(=O)(=O)N(Cc2ccccc2)c2ccc(C(=O)N3CCOC(c4ccccc4)C3)cc2F)c1` (stereo not shown) [Example 68, 1-Methyl-1H-imidazole-4-sulfonic acid benzyl-[2-fluoro-4-(2-phenyl-morpholine-4-carbonyl)-phenyl]-amide], the inhibition at 1 µM on human Kv1.3 turned out to be 90%; at hKv1.5, 62.8%.

Consider `Cn1nccc1S(=O)(=O)N(Cc1ccccc1)c1ccc(C(=O)N2CCOC(c3ccccc3)C2)cc1` (stereo not shown) [Example 85, 2-Methyl-2H-pyrazole-3-sulfonic acid benzyl-[4-(2-phenyl-morpholine-4-carbonyl)-phenyl]-amide], for which the inhibition at 1 µM on human Kv1.3 was determined as 94%; on hKv1.5, 47%.

As to `O=C(c1ccc(N(Cc2ccc(Cl)cc2)S(=O)(=O)c2cccnc2)cc1)N1CCCCC1` [Example 87, Pyridine-3-sulfonic acid (4-chloro-benzyl)-[4-(piperidine-1-carbonyl)-phenyl]-amide], the inhibition at 1 µM on human Kv1.3 came out at 62%; at hKv1.5, 56%.

With `CN1CCN(C(=O)c2ccc(N(Cc3ccccc3)S(=O)(=O)c3ccn(C)n3)cc2)CC1c1ccccc1` (stereo not shown) [Example 90, 1-Methyl-1H-pyrazole-3-sulfonic acid benzyl-[4-(4-methyl-3-phenyl-piperazine-1-carbonyl)-phenyl]-amide], the inhibition at 1 µM on human Kv1.3 turned out to be 76%; on hKv1.5 it was 40.8%.

As to `Cn1cnc(S(=O)(=O)N(Cc2cccc(Cl)c2)c2ccc(C(=O)N3CCCCC3)cc2)c1` [Example 93, 1-Methyl-1H-imidazole-4-sulfonic acid (3-chloro-benzyl)-[4-(piperidine-1-carbonyl)-phenyl]-amide], the inhibition at 1 µM at human Kv1.3 is 67%; on hKv1.5, 43.4%.
